Test results: patent US20240391877A1, “COMPOUND AS INHIBITOR OF COMPLEMENT FACTOR D, AND PHARMACEUTICAL COMPOSITION AND USE THEREOF” (WUHAN CREATERNA SCIENCE AND TECHNOLOGY CO.,LTD., priority 2021, published 2024)
Where two headings read alike, the source gives them in different places.

Tests used:
complement factor D = target: T1, complement factor D (Homo sapiens, UniProt P00746); assay: Complement factor D inhibitory activity (C3b method) in vitro screening; product Bb detected by ELISA; assay type: biochemical; conditions: factor D + factor B + factor C3b, 37° C., Bb by MicroVue Bb Plus ELISA
T1 construct: purchased Complement tech
T1 sequence (P00746 26-253): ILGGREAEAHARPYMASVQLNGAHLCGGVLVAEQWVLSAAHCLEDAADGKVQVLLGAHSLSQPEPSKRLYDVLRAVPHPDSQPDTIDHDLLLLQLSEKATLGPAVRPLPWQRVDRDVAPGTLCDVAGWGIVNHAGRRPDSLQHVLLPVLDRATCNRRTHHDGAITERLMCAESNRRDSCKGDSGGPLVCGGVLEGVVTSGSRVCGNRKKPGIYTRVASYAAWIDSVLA
Source text: 1. Complement Factor D Inhibitory Activity (C3b Method) In Vitro Screening Experiment
V-bottom plate (AXYGEN), DMSO (Sigma), MicroVue Bb Plus ELISA kit (Quidel), complement factor C3b (abbreviated as factor C3b, Complement tech), complement factor B (abbreviated as factor B, Complement tech), complement factor D (abbreviated as factor D, Complement tech), EDTA (MACKLIN), GVB^o (Complement tech), EGTA (Aladdin), MgCl2 (Aladdin), NaOH (Sinopharm), microplate reader (Molecular Devices, SpectraMax i3x), microplate thermostatic shaker (Thermo, MB100-2A), pipette (Gilson)
0.1 M Mg-EGTA: 3.8 g of EGTA, 0.9521 g of MgCl2, and 0.7 g of NaOH were weighed, and the pH was adjusted to 7.5 with NaOH. Distilled water was added to make up to 100 mL, and the mixture was filtered with a […] sterile needle filter, stored in portions at 4° C.
Buffer: 0.1 M Mg-EGTA solution was diluted 10-fold to 10 mM with GVB^o buffer; • factor B working solution: 1 mg/mL factor B solution (10.75 μM) was diluted 6.7-fold to 1.6 μM with buffer; • factor C3b working solution: 1 mg/mL factor C3b solution (5.68 μM) was diluted 5-fold to […] with buffer; • factor D working solution: 0.1 mg/mL factor D solution (4.17 μM) was diluted 1303-fold to 3.2 nM with buffer.
Note: a. The above dilution multiples are for reference only and are adjusted according to the true concentration labeled on the reagent; • b. factor B: 93 KDa, factor D: 24 KDa, factor C3b: 176 KDa.
Stop solution: An appropriate amount of EDTA powder was weighed, dissolved in a certain amount of GVB^o buffer, and the pH was adjusted to 7.5 with NaOH. The mixture was stirred until clear and prepared into a 10 mM solution.
Compound stock solution: 40 mM compound solution was diluted with DMSO into 1 mM stock solution, and the 1 mM stock solution was diluted 3-fold with DMSO at 8 points to prepare compound stock solutions of various concentrations.
Compound working solution: diluted 250-fold with buffer to obtain compound solutions of various concentrations.
In the V-bottom plate, the experimental group was added with 10 μL of factor D solution and 10 μL of compound solution; the positive control group was added with 10 μL of factor D solution and buffer containing 0.4% DMSO; the blank control group was added with […] containing 0.2% DMSO; incubated at 37° C. for 15 min; the factor B working solution and the factor C3b working solution were mixed homogeneously at a ratio of 1:1; 20 µL of the mixture was added to each well and incubated at 37° C. for 30 min; the reaction was stopped by adding 40 μL of stop solution; the production of product Bb was detected by MicroVue Bb Plus ELISA kit.
1.4.1 The required wells of the ELISA plate were taken out and allowed to return to room temperature, and the remaining ones were repackaged and stored at 4° C.;
1.4.2 the wells were washed twice with 300 μL of 1× wash buffer, and incubated for 1 min at 25° C. for the first wash;
1.4.3 samples were diluted 8-fold with complement specimen diluent, and 100 μL of sample was added to each well and incubated at 25° C. for 30 min;
1.4.4 the liquid in the wells was discarded, and the wells were washed 5 times with 300 μL of 1× wash buffer, and incubated at room temperature for 1 min for the first wash;
1.4.5 50 μL of Bb Plus Conjugate was added to each well and incubated at 25° C. for 30 min;
1.4.6 the liquid in the wells was discarded, and the wells were washed 5 times with 300 μL of 1× wash buffer, and incubated at room temperature for 1 min for the first wash;
1.4.7 100 μL of […] (Substrate Solution) was added to each well and incubated at 25° C. for 15 min;
1.4.8 100 μL of stop solution was added to each well, and the absorbance was detected at 450 nm within 30 min.
1.5.1 Inhibition rate of each drug concentration:
The PC group represents 0% inhibition rate, and the NC group represents 100% inhibition rate. […]

[1] = system: hemolysis of rabbit erythrocytes; assay: Rabbit erythrocyte hemolysis assay to evaluate inhibitory activity on the bypass pathway; assay type: cell-based; conditions: Oryctolagus cuniculus, 0.5 h, 48% NHP or 26.4% NHS, 37° C. 30 min, absorbance 415 nm
Source text: 2. Rabbit Erythrocyte Hemolysis Assay to Evaluate the Inhibitory Activity of Compounds on the Bypass Pathway
Normal Human Serum, NHS (collected from healthy people), Normal Human Plasma, NHP (Shanghai Yuduo), 96-well ELISA plate (Jet Biofil), Japanese big-eared white rabbit (Wuhan WQJX), Alsever's solution (Procell), centrifuge (Thermo, PICO17), thermostatic shaker (Shanghai Fuma), destaining shaker (Beijing Liuyi), cell counter (Invitrogen, Counter Countess II) (GVB^o, EGTA, MgCl2, NaOH, microplate reader, microplate thermostatic shaker, and pipette are equivalent to those in the experiment 1).
48% NHP: 100% NHP was diluted to 48% with buffer;
26.4% NPS: 100% NHS was diluted to 26.4% with buffer;
rabbit erythrocyte suspension: blood was taken from rabbit ear marginal vein, anticoagulated with Alsever's solution at a ratio of 1:1, stored in portions at 4° C., and could be stored for 4 weeks. Before use, the suspension was centrifuged at 500 g for 5 min to discard the Alsever's solution, washed three times with an equal volume of buffer and centrifuged at 500 g for 5 min, and finally the density was adjusted to 6×10^8 cells/mL with buffer.
In the 96-well ELISA plate, the experimental group was added with 50 μL of 48% NHP or 26.4% NHS and 50 μL of compound solution; the positive control group was added with 50 μL of 48% NHP or 26.4% NHS and 50 μL of buffer containing 0.2% DMSO; the blank control group was added with 50 μL of 48% inactivated NHP or 26.4% inactivated NHS and 0.2% DMSO buffer; the H2O group was added with 100 μL of double-distilled water; incubated at 37° C. for 15 min; 20 μL of rabbit erythrocyte suspension was added to each well and incubated on a shaker at 37° C. for 30 min; centrifuged at 2000 g (3380 rpm) for 5 min, and […] of supernatant was transferred to a new 96-well ELISA plate, and the absorbance was detected at 415 nm.
The PC group represents 100% hemolysis, and the NC group represents 0% hemolysis.
IC50: half-maximal inhibitory concentration. Data were collected to calculate the log value of hemolysis percentage versus compound concentration, and IC50 values were calculated using GraphPad Prism software.

[2] = In vivo pharmacokinetic study (PK assay on SD rats); conditions: Sprague-Dawley, rat, plasma; for bioavailability: read-out: Oral bioavailability F
Protocol: 3. In Vivo Pharmacokinetic Study of the Compounds of the Present Disclosure
After adaptive domestication, SPF grade SD rats were administered 1 or 3 mg/kg the compounds of the present disclosure by single gavage and tail vein injection, respectively. Plasma was collected at specific time points after administration, and the concentration of compounds in plasma was detected by LC-MS/MS (AB SCIEX Qtrap4500). The PK parameters of each compound were calculated using software to reflect the pharmacokinetic properties of the compounds of the present disclosure in vivo in animals.

[3] = PO (3% DMSO + 4% Tween), 1 mg/kg
[4] = PO (3% DMSO + 4% Tween), 3 mg/kg

SMILES | IC50 (complement factor D) | IC50 [1] | AUC(0-t) ([2]; IV, 1 mg/kg) | Cmax ([2]; IV, 1 mg/kg) | half-life ([2]; IV, 1 mg/kg) | bioavailability ([2]; PO 1 mg/kg vs IV 1 mg/kg) | AUC(0-t) [2, 3] | Cmax [2, 3] | half-life [2, 3] | bioavailability ([2]; PO 3 mg/kg vs IV 1 mg/kg) | AUC(0-t) [2, 4] | Cmax [2, 4] | half-life [2, 4]
NCc1cccc(-c2cc(COc3ccccc3CC(=O)O)cc(N3CCC4(CC3)CC4)c2)c1F [Compound 007, 2-(2-((3′-(aminomethyl)-2′-fluoro-5-(6-azaspiro[2.5]octan-6-yl)-[1,1′-biphenyl]-3-yl)methoxy)phenyl)acetic acid] | 12 nM | 59 nM | 3290 ng·h/mL | 3270 ng/mL | 0.64 h | 70.2% | 2310 ng·h/mL | 936 ng/mL | 1.46 h |  |  |  | 
NCc1nccc(-c2cc(COc3ccccc3CC(=O)O)cc(N3CCC4(CC3)CC4)c2)c1F [Compound 023, 2-(2-((3-(2-(aminomethyl)-3-fluoropyridin-4-yl)-5-(6-azaspiro[2.5]octan-6-yl)benzyl)oxy)phenyl)acetic acid] | 15 nM | 76 nM | 7060 ng·h/mL | 3410 ng/mL | 4.58 h |  |  |  |  | 35.3% | 7480 ng·h/mL | 1020 ng/mL | 4.1 h
NCc1cccc(-c2cc(COc3ccccc3CC(=O)O)cc(N3CC4(CCOC4)C3)c2)c1 [Compound 031, 2-(2-((3′-(aminomethyl)-5-(6-oxa-2-azaspiro[3.4]octan-2-yl)-[1,1′-biphenyl]-3-yl)methoxy)phenyl)acetic acid] | 3 nM | 6 nM |  |  |  |  |  |  |  |  |  |  | 
NCc1cccc(-c2cc(COc3ccccc3CC(=O)O)cc(N3CCC4(CC3)CC4)c2)c1 [Compound 001, 2-(2-((3′-(aminomethyl)-5-(6-azaspiro[2.5]octan-6-yl)-[1,1′-biphenyl]-3-yl)methoxy)phenyl)acetic acid] | 10 nM | 41 nM | 8030 ng·h/mL | 1800 ng/mL | 3.59 h | 40.3% | 3240 ng·h/mL | 577 ng/mL | 4.13 h |  |  |  | 
NCc1cccc(-c2cc(COc3ccc(F)cc3CC(=O)O)cc(N3CCC4(CC3)COC4)c2)c1F [Compound 025, 2-(2-((3′-(aminomethyl)-2′-fluoro-5-(2-oxa-7-azaspiro[3.5]nonan-7-yl)-[1,1′-biphenyl]-3-yl)methoxy)-5-fluorophenyl)acetic acid] | 7 nM | 12 nM |  |  |  |  |  |  |  |  |  |  | 
NCc1cccc(-c2cc(COc3ccccc3CC(=O)O)cc(N3CCC4(CCOCC4)CC3)c2)c1 [Compound 029, 2-(2-((3′-(aminomethyl)-5-(3-oxa-9-azaspiro[5.5]undecan-9-yl)-[1,1′-biphenyl]-3-yl)methoxy)phenyl)acetic acid] | 6 nM | 10 nM |  |  |  |  |  |  |  |  |  |  | 
NCc1cccc(-c2cc(COc3ccccc3CC(=O)O)cc(N3CCC4(CCOC4)CC3)c2)c1 [Compound 014, 2-(2-((3′-(aminomethyl)-5-(2-oxa-8-azaspiro[4.5]decan-8-yl)-[1,1′-biphenyl]-3-yl)methoxy)phenyl)acetic acid] | 14 nM | 10 nM |  |  |  |  |  |  |  |  |  |  | 
